Assay results published in ChEMBL document CHEMBL1147638, “(+/-)-cis-(6-Ethyl-tetrahydropyran-2-yl)-formic acid: a novel substance with antinociceptive properties” (2004).

Legend:
Mus musculus [1] = test: Increase in analgesic activity of compound after oral administration in mouse when compared with morphine in tail flick test; assay type: functional
Mus musculus [2] = test: Increase in antinociceptive activity in mouse after oral administration at the dose of 1 mg/kg in tail flick test; assay type: functional

Structure (SMILES): CC[C@@H]1CCC[C@H](C(=O)O)O1
- Increase (Mus musculus [1]): 55%
- Increase (Mus musculus [2]): 40%
